The values that follow come from patent US20090241205A1, “METHOD FOR IDENTIFYING CRMP MODULATORS” (priority 2006, published 2009).

“Also recorded” adds a separate entry of the source. Bounds are passed on as bounds.

Usually Kd stands for the constant that tells how readily two partners part at equilibrium.

Assay [1] concerns neural derivates of murine embryonal stem cells. Kind of assay: NMDA excitotoxic insult, survival of neural derivates of murine embryonal stem cells (calcium imaging). The assay is classed as cell-based. The conditions noted are these: 200 μM NMDA; for survival rate after excitotoxic insult: 100 μM compound, NMDA alone 15.6% (16%).
In another assay the target is T1, CRMP-2 (Rattus norvegicus, UniProt P47942).
T1 construct: from tissue; host or cells: rat brain (extract/fractions)
Kind of assay: biological pull-down (Affinity Fishhook) with biotinylated affinity reagents in rat brain. The assay is classed as binding. The conditions noted are these: biotinyl affinity reagent. As to the method:
Biological pull-down experiments (“Affinity Fishhook”) were performed by incubating a set of four Lacosamide-related affinity-reagents with biotinyl-moieties (R)—N-Benzyl-2-acetamido-6-[Nε-(biotinyl)-2-isothiocynato-6-aminohexanamido]-aminohexanamide((R)-7), (S)—N-Benzyl-2-acetamido-6-[Nε-(biotinyl)-2-isothiocynato-6-aminohexanamido]-aminohexanamide((S)-7), (R)—N-{3-[Nε-(biotinyl)-2-isothiocynato-6-aminohexanamide]-benzyl}-2-acetamido-3-methoxypropion-amide((R)-34) and (R)—N-{4-[Nε-(biotinyl)-2-isothiocynato-6-aminohexanamide]-benzyl}-2-acetamido-3-methoxypropion-amide((R)-35) to rat brain.
(a) The pattern of affinity captured proteins is completely different from raw extracts and controls and the protein is consistently captured under a variety of conditions.

The subject of assay [2] is hippocampal primary cells. Kind of assay: axon growth in hippocampal primary cells (Tau-1 immunofluorescence). The assay is classed as cell-based. The conditions noted are these: for BDNF-induced axonal growth: 200 ng/ml BDNF. As to the method:
It could be shown that the neurotrophins NT3 and BDNF stimulate axonal outgrowth in a primary culture of embryonal hippocampal neurons. Quantification of neurite outgrowth was performed by immunofluorescence microscopy employing an antibody against the axonal marker protein Tau-1.

Another assay concerns the target T2, human CRMP-2 (Homo sapiens, UniProt Q16555).
T2 construct: expressed in transfected cells; host or cells: Xenopus oocytes (crude membranes)
Kind of assay: competition protein binding with [14C]-labeled lacosamide, crude membranes from CRMP-2 transfected Xenopus oocytes. Here is the method: It was therefore the object of the present invention to provide a method of identifying compounds suitable for the prevention, alleviation or/and treatment of diseases or conditions which can be treated by Lacosamide, based on the mode of action of Lacosamide. […] The binding was confirmed in experiments employing heterologously expressed human CRMP-2 in Xenopus oocytes.
Based on the results of the previous study, the present binding curve ranged from 1 to 100 μM (10 concentrations, in triplicates).

For the molecule `COC[C@H](NC(C)=O)C(=O)NCc1ccccc1` (single isomer, unassigned) [S-enantiomer of lacosamide], the “survival rate after excitotoxic insult” value in assay [1] (listed as S-enantiomer) is given as “only a minor effect”.

As to `CC(=O)N[C@H](CCCCNC(=O)C(CCCCNC(=O)CCCC[C@@H]1SC[C@@H]2NC(=O)N[C@@H]21)N=C=S)C(=O)NCc1ccccc1` (stereo partly drawn) [(R)-7, (R)—N-Benzyl-2-acetamido-6-[Nε-(biotinyl)-2-isothiocynato-6-aminohexanamido]-aminohexanamide], at CRMP-2, the “proteins captured in pull-down” value is “enrichment of an overlapping set of proteins, including collapsing response mediator protein (CRMP-2)”.

In the case of `COC[C@@H](NC(C)=O)C(=O)NCc1cccc(NC(=O)C(CCCCNC(=O)CCCCC2SCC3NC(=O)NC32)N=C=S)c1` (stereo partly drawn) [(R)-34, (R)—N-{3-[Nε-(biotinyl)-2-isothiocynato-6-aminohexanamide]-benzyl}-2-acetamido-3-methoxypropion-amide], the “proteins captured in pull-down” value at CRMP-2 was “enrichment of an overlapping set of proteins, including collapsing response mediator protein (CRMP-2)”.

Take `COC[C@@H](NC(C)=O)C(=O)NCc1ccc(NC(=O)C(CCCCNC(=O)CCCCC2SCC3NC(=O)NC32)N=C=S)cc1` (stereo partly drawn) [(R)-35, (R)—N-{4-[Nε-(biotinyl)-2-isothiocynato-6-aminohexanamide]-benzyl}-2-acetamido-3-methoxypropion-amide]: the “proteins captured in pull-down” value on CRMP-2 is on record as “enrichment of an overlapping set of proteins, including collapsing response mediator protein (CRMP-2)”.

For `CC(=O)N[C@@H](CCCCNC(=O)C(CCCCNC(=O)CCCC[C@@H]1SC[C@@H]2NC(=O)N[C@@H]21)N=C=S)C(=O)NCc1ccccc1` (stereo partly drawn) [(S)-7, (S)—N-Benzyl-2-acetamido-6-[Nε-(biotinyl)-2-isothiocynato-6-aminohexanamido]-aminohexanamide], the “proteins captured in pull-down” value at CRMP-2 is listed as “enrichment of an overlapping set of proteins, including collapsing response mediator protein (CRMP-2)”.

Regarding `COC[C@@H](NC(C)=O)C(=O)NCc1ccccc1` [Lacosamide, (R)-2-acetamide-N-benzyl-3-methoxypropionamide], the NT3-induced axonal growth result in assay [2] (50 ng/ml NT3, 100 μM Lacosamide) was “significantly decreases”. Further, the BDNF-induced axonal growth entry in assay [2] (1 μM Lacosamide) and in assay [2] (100 μM Lacosamide) was “significantly decreases” in each case. Further, the “basal axonal outgrowth (axon length)” value in assay [2] (Lacosamide 1-200 μM, no neurotrophin) is “does not significantly change; also recorded: did not significantly change”. Besides, the NT3-induced neuronal outgrowth result in assay [2] (concentration not stated in text (FIG. 2)) is on record as “attenuated”. Further, the BDNF-induced neuronal outgrowth result in assay [2] (concentration not stated in text (FIG. 3)) is recorded as “attenuated”. In addition, in assay [1], the “survival rate after excitotoxic insult” value is given as 71%. Besides, the “neuroprotective effect after pre-incubation with CRMP-2 siRNA” value in assay [1] (CRMP-2 siRNA pre-incubation) is listed as “diminished”. The molecule further returned a Kd at human CRMP-2 of less than 5 µM. In addition, the Bmax entry at human CRMP-2 ([14C]-lacosamide, binding curve 1 to 100 μM) is listed as “about 200 pM/mg”. For the same molecule, the specific binding result at human CRMP-2 (crude membranes from CRMP-2 transfected Xenopus oocytes, 1 to 100 μM) is “competitive and specific binding was observed”.
